The nature of data set [1]: In vitro metabolism in mouse jejunum loop fluid. In kind it is in vitro ADME. The following applies: for Rate of degradation relative to peptide 2: mouse intestinal fluid. As to the method:
The purpose of this study was to determine the stability of phosphorylated peptides in mouse jejunal loop fluid. […] The isotopically labeled peptide 2 was synthesized with ^13C, ^15N-labeled alanine and leucine (i.e., with a sequence CCpS[^13C6,^15N]LCCNP[^13C6,^15N]ACTGC (SEQ ID NO:16)).
Each peptide was synthesized by American Peptide Company, Inc., and was stored desiccated at −20° C. A 1 mg/mL solution for each of the non-labeled peptides was prepared in 1 M tris(hydroxymethyl)aminomethane hydrochloride (Tris-HCl), pH 8 just prior to conducting the mouse intestinal loop fluid assay. A 500 ng/mL solution of ^13C, ^15N-labeled peptide 2 was prepared in 0.1% formic acid in water and was utilized to dilute the jejunum samples for post-assay LC-MS/MS analysis.
To collect the fluid, mice were fasted overnight with full access to water. They were then anesthetized with isofluorane for surgery and subjected to laparotomy in which the small intestine was exteriorized. Jejunum loops of 3 to 4 cm in length were made with sutures starting at 7 cm from the pyloric sphincter of the stomach. Once the loops were formed, they were injected with 200 μL of phosphate buffered saline (PBS) buffer (10 mM, pH 7.4). The abdominal wall and skin of the animals were then sutured, and the animals were allowed to recover for 30 minutes. Following recovery, the animals were sacrificed, the loops were then excised and the fluid inside was recovered and stored at −80° C. until use.
For each peptide, 25 μL of the 1 mg/mL peptide stock solution was added to 25 μL of 1 M Tris-HCl and 25 μL of 10× calf intestinal phosphatase (CIP) buffer containing 500 mM Tris-HCl, 1 M sodium chloride (NaCl), 0.1 mM magnesium chloride (MgCl2), pH 8. The reactions were initiated by adding 175 μL of the mouse jejunum loop fluid or 175 μL of the 1 M Tris-HCl pH8 buffer for the control reactions. The final concentration of each peptide was 100 μg/mL. The reactions were continuously mixed and maintained at 37° C. on a plate shaker. At 0, 2, 5, 10, 20, 30, 60, 90 and 120 minutes after adding the mouse intestinal loop fluid, a 25 μL aliquot was taken and added to 25 μL of 4° C. 12% trichloroacetic acid to stop the reaction. An additional 200 μL of 0.1% formic acid in water was added to these reactions for dilution purposes. These samples were then further diluted by taking 20 μL of each sample and adding it to 480 μL of 0.1% formic acid in water containing 500 ng/mL of the internal standard 13C, 15N-labeled peptide 2.
All samples were analyzed using an Applied Biosystems/MDS SCIEX API 4000 triple quadrupole mass spectrometer equipped with a high-performance liquid chromatography (HPLC) system. The mass spectrometer was operated in multiple reaction monitoring (MRM) mode, with resolution set to 1.2 Da. […]

The subject of data set [2] is ligated rat duodenal loops. In words: Fluid secretion in rat intestinal loops. In kind it is in vivo. The settings on record: 2.5 μg of peptide per loop. Here is the method:
The effect of GC-C agonist peptides on secretion were studied by injecting GC-C agonist peptides described herein directly into an isolated loop in wild-type rats.
Loops were isolated by surgically ligating three loops in the small intestine of the rat. The methodology for ligated loop formation was similar to that described in (London et al., 1997, Am J Physiol, p. G93-105). The loops were roughly centered and at lengths of 1-3 cm. The loops were injected with 200 μl of either peptide/GC-C agonist (0.1-5 μg) or vehicle (20 mM Tris, pH 7.5 or Krebs Ringer, 10 mM Glucose, HEPES buffer (KRGH)). Following a recovery time of up to 90 minutes the loops were excised. Weights were recorded for each loop before and after removal of the fluid contained therein. The length of each loop was also recorded. A weight to length ratio (W/L) for each loop was calculated to determine the effects of the GC-C agonist peptide described herein on secretion. Loop fluid volume was also determined.
Data showing increases in fluid secretion, pH increase and bicarbonate secretion in ligated duodenal loops in rats are shown in FIG. 2 and Table 8. […] Table 8 provides the results in ligated rat duodenal loops using 2.5 μg of peptide per loop.

The subject of data set [3] is upper GI transit in mice. In words: Gastrointestinal transit in mice (charcoal meal). The format is in vivo. The settings on record: female CD-1 mice; oral gavage; distance travelled by charcoal front, % of small intestine. As to the method:
The purpose of the assay was to test the effect of the guanylate cyclase C agonist peptides on in vivo gastrointestinal transit in mice.
For the assay, female CD-1 mice (n=10 per group) weighing 25-30 g were fasted overnight and given access to water ad libitum. Activated charcoal (20 g; 100 mesh; Sigma cat #242276) was suspended in 200 mL gum arabic (100 mg/mL), and stirred for at least one hour. Test peptides were prepared in a 20 mM Tris pH 6.9 vehicle.
Test peptide and vehicle were administered in 200 μL doses by oral gavage. Seven minutes after dosing the test peptides, 200 μL of the charcoal/gum arabic suspension was dosed by oral gavage. […] The total length of the small intestine was measured from the pyloric junction to the ileocaecal junction. The distance travelled by the charcoal was measured from the pyloric junction to the charcoal front. The Distance Travelled (%) was determined as (distance travelled by charcoal/total length of the small intestine)×100. Data were entered into the GraphPad Prism software program and analyzed by ANOVA using a Bonferroni multiple comparison test post-hoc. Plots of data and ED50 were also determined using the GraphPad Prism software package.
The dose-dependent effects of acute doses of Peptide 4, Peptide 1, Peptide 2, the dephosphorylated form of Peptide 1 and the dephosphorylated form of Peptide 2 on GI transit were determined in female CD mice. […]

Data set [4] has as its target T1, Calf intestinal alkaline phosphatase (CIP) (Bos taurus, UniProt P19111).
T1 construct: purchased New England BioLabs M0290S
In words: Alkaline phosphatase reaction (dephosphorylation of peptide substrates, LC-MS). In kind it is in vitro ADME. The following applies: with and without calf intestinal alkaline phosphatase; data not shown. Here is the method: For the alkaline phosphatase reactions, peptide stocks were prepared at 1 mg/mL in 0.1 M Tris-HCl pH 8, which were stored at −20° C. until assays were conducted. For the acid phosphatase reactions, peptide stocks were prepared at 1 mg/mL in 50 mM sodium phosphate pH 6, which was stored at −20° C. until assays were conducted.
Calf intestinal alkaline phosphatase (CIP) was obtained from New England BioLabs, Ipswich, Mass. Cat #M0290S. The CIP reaction solution was prepared by dilution with buffer (50 mM KCl, 10 mM Tris-HCl pH 8, 1 mM MgCl2, 50% glycerol) to 0.5 units/μL. The alkaline phosphatase reaction solutions were assembled in 20 μL quantities containing: • 2 μL 10× CIP buffer (1M NaCl, 500 mM Tris-HCl pH 8, 100 mM MgCl2) • 2 μL peptide stock (1 mg/mL) • 12 μL H2O • 4 μL alkaline phosphatase (0, 0.5 or 2 units)
The reaction solutions were mixed gently and incubated for 90 minutes at 37° C. These reaction solutions were stored at −20° C. until analysis. For analysis, the reaction solutions were diluted from […] of CIP treated peptide to 50 μL with 0.1% formic acid in water to a final concentration of 10 μM.
Control reactions were assembled for enzyme activity containing 10 mM p-nitrophenylphosphate in place of peptide. After incubation, the reactions were diluted with 0.1 mL of 100 mM borate buffer pH 9 and read at the absorbance of 405 nm to monitor p-nitrophenol appearance.

Positions of bridges follow the written chain, without caps; N, C: chain ends. Non-standard residues stand in square brackets, D forms with d. Residues, ends and D or L forms follow the SMILES beside them. pS = N[C@@H](COP(=O)(O)O)C(=O)O

T1 sequence (P19111 20-506): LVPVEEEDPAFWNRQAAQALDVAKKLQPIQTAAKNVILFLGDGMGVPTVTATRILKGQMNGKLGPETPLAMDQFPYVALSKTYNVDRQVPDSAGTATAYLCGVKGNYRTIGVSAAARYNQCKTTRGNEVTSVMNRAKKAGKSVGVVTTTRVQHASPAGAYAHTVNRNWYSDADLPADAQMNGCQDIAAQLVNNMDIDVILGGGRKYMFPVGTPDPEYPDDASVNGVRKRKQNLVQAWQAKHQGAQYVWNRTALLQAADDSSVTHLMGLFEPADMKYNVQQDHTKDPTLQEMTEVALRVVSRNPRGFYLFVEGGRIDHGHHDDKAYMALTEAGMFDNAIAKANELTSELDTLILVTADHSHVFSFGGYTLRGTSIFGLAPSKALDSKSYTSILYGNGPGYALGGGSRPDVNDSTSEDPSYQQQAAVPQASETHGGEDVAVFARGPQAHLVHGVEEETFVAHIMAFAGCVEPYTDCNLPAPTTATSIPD

Take `CC(C)C[C@@H]1NC(=O)[C@H](COP(=O)(O)O)NC(=O)[C@@H]2CSSC[C@@H]3NC(=O)[C@H](C)NC(=O)[C@@H]4CCCN4C(=O)[C@H](CC(N)=O)NC(=O)[C@H](CSSC[C@H](N)C(=O)N2)NC(=O)[C@H](CSSC[C@@H](C(=O)O)NC(=O)CNC(=O)[C@H]([C@@H](C)O)NC3=O)NC1=O` [Peptide 2, CCpSLCCNPACTGC] (H-CC[pS]LCCNPACTGC-OH; disulfide 1-6, 2-10, 5-13 (inferred); N-terminus and C-terminus assumed): in data set [1] (mouse jejunum loop fluid at 37° C.), the Metabolite formation result is reported as “Formation of dephospho-peptide 2 was observed”.
Regarding `CC(C)C[C@@H]1NC(=O)[C@H](CO)NC(=O)[C@@H]2CSSC[C@@H]3NC(=O)[C@H](C)NC(=O)[C@@H]4CCCN4C(=O)[C@H](CC(N)=O)NC(=O)[C@H](CSSC[C@H](N)C(=O)N2)NC(=O)[C@H](CSSC[C@@H](C(=O)O)NC(=O)CNC(=O)[C@H]([C@@H](C)O)NC3=O)NC1=O` [Dephospho-Peptide 2, CCSLCCNPACTGC] (H-CCSLCCNPACTGC-OH; disulfide 1-6, 2-10, 5-13 (inferred); N-terminus and C-terminus assumed), the “Rate of degradation relative to peptide 2” value in data set [1] is on record as “degraded faster in mouse intestinal fluid than peptide 2”.
Turning to “CCEFCCNPACTGCY (Synthetically generated peptide (Peptide 4))”, in data set [2], the “Rate of HCO3− accumulation” value is on record as 0.00008 Meq/min/cm, the “Rate of fluid accumulation” value stood at 2.0 µL/min/cm and the pH was 8.2. Moreover, in data set [3], the “ED50, acceleration of upper GI transit in mice” value is 2.06 µg/kg.
In the case of `CC(C)C[C@@H]1NC(=O)[C@H](CCC(=O)O)NC(=O)[C@@H]2CSSC[C@@H]3NC(=O)[C@H](C)NC(=O)[C@@H]4CCCN4C(=O)[C@H](CC(N)=O)NC(=O)[C@H](CSSC[C@H](N)C(=O)N2)NC(=O)[C@H](CSSC[C@@H](C(=O)N[C@@H](Cc2ccc(O)cc2)C(=O)O)NC(=O)CNC(=O)[C@H]([C@@H](C)O)NC3=O)NC1=O` [Peptide 3, CCELCCNPACTGCY] (H-CCELCCNPACTGCY-OH; disulfide 1-6, 2-10, 5-13 (inferred); N-terminus and C-terminus assumed), the “Rate of degradation relative to peptide 2” value in data set [1] is “degraded faster in mouse intestinal fluid than peptide 2”. Besides, the “Peptide remaining (detection)” value in data set [1] (mouse jejunum fluid, after 90 minutes, 37° C.) is “not detected”. In data set [4], the “Effect of CIP treatment on peptide (LC-MS)” value was “not affected”.
